# Legend:
# portal vein glucagon = experiment: Decrease of portal vein glucagon levels in anesthetized rats, compared to somatostatin; format: in vivo, rat; conditions: multiples or fractions of the effect of somatostatin (= 1); urethane-anesthetized male Sprague-Dawley rats, external jugular vein, portal vein blood after 5 minutes
# Procedure: (§1) Analogs of somatostatin were compared to somatostatin in their ability to decrease the levels of portal vein glucagon and insulin in anesthetized rats. Male Sprague-Dawley rats (Charles River CD) weighing 160-200 g were anestetized with urethane (150 mg/100 g of body weight; Aldrich). Saline or peptides were administered via the external jugular vein. After 5 minutes, the portal vein was exposed, and blood was collected via syringe containing 3 mg of EDTA and placed in chilled tubes containing 100 μl of Trasylol (FBA Pharmaceuticals) for subsequent hormone analysis. Plasma levels of glucagon were determined by the method of Faloona and Unger, Methods of Hormone Radioimmunossay, Jaffe and Behrman (Eds), Academic Press, New York, Vol. II, pp. 257-527 (1976), utilizing glucagon antisera 30K obtained from R. Unger (Dallas, TX). Plasma levels of insulin were determined by a modification of the procedure of Herbert et al., J. Clin. Endocrinol. Metab., 25, 1375-1384 (1965).
# (§2) The test results for some of the compounds of this invention are recorded below with the results for somatostatin listed first and given the arbitrary value of 1. The results for the instant compounds are given as multiples or fractions of the effect of somatostatin. The first of the instant compounds listed is the compound prepared in Example 1-5. […]
# portal vein insulin = experiment: Decrease of portal vein insulin levels in anesthetized rats, compared to somatostatin; format: in vivo, rat; conditions: multiples or fractions of the effect of somatostatin (= 1); urethane-anesthetized male Sprague-Dawley rats, external jugular vein, portal vein blood after 5 minutes
# Procedure: as §1, §2
structure (smiles),measurement,setting,value
C[C@H](N)C(=O)NCC(=O)N[C@H]1CSSC[C@@H](C(=O)O)NC(=O)[C@H](CO)NC(=O)[C@H]([C@@H](C)O)NC(=O)[C@H](Cc2ccccc2)NC(=O)[C@H]([C@@H](C)O)NC(=O)[C@H](CCCCN)NC(=O)[C@H](Cc2c[nH]c3ccccc23)NC(=O)[C@H](Cc2ccccc2)NC(=O)[C@H](Cc2ccccc2)NC(=O)[C@H](CC(N)=O)NC(=O)[C@H](CCCCN)NC1=O [Somatostatin],Glucagon Inhibition,portal vein glucagon,1
same,Insulin Release Inhibition,portal vein insulin,1

# — patent US4612366A, “Cyclic hexapeptide somatostatin analogs” (Merck & Co., Inc., priority 1985, dated 1986)
